Laboratory results as given in article PMC3320615, “β-Microseminoprotein Endows Post Coital Seminal Plasma with Potent Candidacidal Activity by a Calcium- and pH-Dependent Mechanism” (PLoS Pathogens, 2012).

Key:
[1] = tested on: HaCaT cells; experiment: LDH release from HaCaT cells; type: cell-based, human; conditions: 100 µM; over night; colorimetric; vs 2% Triton-X100
Method: (§1) The cytotoxicity of MSP was evaluated by the ability of 100 µM MSP66–76 or MSP66–76E/Q to cause LDH release from HaCaT cells and lysis of erythrocytes.
(§2) Supplementary file ppat.1002625.s006.tif: Table S1 Cytoxic and hemolytic Effect of MSP66–76E/Q and MSP66–76. HaCaT cells were treated with 100 µM of MSP66–76E/Q and MSP66–76 over night. The release of LDH was subsequently determined by colorimetric assay and depicted as percent of LDH release of cells treated with 2% Triton- X100. Erythrocytes were treated for 1 ½ hour with 100 µM of MSP66–76E/Q and MSP66–76 followed by centrifugation. Lysis was determined by measuring hemoglobin in the supernatant by measuring the absorbance at 550 nm. Results are depicted as % of lysis compared to lysis obtained by 2% Triton-X100. (TIF) Click here for additional data file.

[2] = tested on: erythrocytes; experiment: Lysis of erythrocytes; type: cell-based, human; conditions: 100 µM; 1 ½ hour; absorbance at 550 nm; vs 2% Triton-X100
Method: as §1, §2

[3] = tested on: Candida albicans ATCC 90028; experiment: CFU assay with C. albicans; type: cell-based; conditions: for Estimate (difference between means of log values): control - treatment, pH 4
Excerpt: Candida albicans strains: ATCC 90028, CAF-1-2, SC5814, BM4f35II68, vaginal clinical isolates from Dept. of Clincal Microbiology, Skåne University Hospital, SO_303369 and SO_503471. Candida parapsilosis strains: ATCC 90018, BD1800, BD17837, and BM24/68/09. Candida glabrata strains: ATCC 90030, clinical isolates from Dept. of Clincal Microbiology, Skåne University Hospital, SO_3336, SO_3400 and SO_503413. All strains were inoculated from frozen culture and grown in Yeast extract-Peptone-Dextrose (YPD) (Sigma) and on Sabourand Dextrose Broth (SAB) (Difco) plates at 30°C with 5% (v/v) CO2. If not otherwise stated, ATCC 90028 was used for candidacidal experiments.
Candida albicans was grown over night, washed, and resuspended in 10 mM Tris, 5 mM glucose, pH 7.4 or pH 4. Approximately 4×10^3 to 10^4 CFU of C. albicans were incubated with the test substance in low or neutral pH buffer for 4 h at 37°C. After incubation, the suspension was diluted and plated. Colonies were counted after two days incubation of the plates at 30°C. Bacteria from overnight cultures were inoculated in fresh medium and grown for 3 h, washed in 10 mM Tris, 5 mM glucose pH 7.4. Approximately 8×10^4 CFU were incubated with sample in 10 mM Tris, 5 mM glucose pH 7.4 or pH 4 for 1 h at 37°C, diluted, plated and incubated over night at 37°C and the colonies counted.
Statistical analysis was performed using SAS 9.2 software (SAS Institute, Cary, NC). Colony counts were log transformed. In order to choose the statistical method, interactions between the Treatment and Experiment were investigated. Treatments were screened by doing pair wise comparisons of each treatment to a control. Statistical tests used for the comparisons included MIXED procedure and LSMEANS statement. All tests where P-value<.05 were considered to indicate statistical significance. P-values were not adjusted for the multiple comparisons.
“Estimate” is the estimate of the difference between means of log values of treatment 1 and treatment 2

For “RIFKKQDCKYI [MSP66–76E/Q, mutated form of MSP66–76 where E71 was substituted with a glutamine]”, the “LDH release from HaCaT cells” value [1] was “No significant LDH release”, the Lysis of erythrocytes [2] was “No significant LDH release or lysis” and the “Effect of 0.5 mM calcium on antifungal activity” value ([3]; acidic pH, Figure S2) was “not inhibited”. For the same sequence, the “Estimate (difference between means of log values)” value ([3]; 140 µM + 0.5 mM calcium, experiment 1) was 3.1854, the “Estimate (difference between means of log values)” value ([3]; 140 µM + 0.5 mM calcium, experiment 2) was 2.1182 and the “Estimate (difference between means of log values)” value ([3]; 140 µM + 0.5 mM calcium, experiment 3) was 2.6879. The “Estimate (difference between means of log values)” value ([3]; 140 µM + 0.5 mM magnesium, experiment 1) was 4.0137, the “Estimate (difference between means of log values)” value ([3]; 140 µM + 0.5 mM magnesium, experiment 2) was 1.7951 and the “Estimate (difference between means of log values)” value ([3]; 140 µM + 0.5 mM magnesium, experiment 3) was 4.5634. For the same sequence, the “Estimate (difference between means of log values)” value ([3]; 140 µM, experiment 1) was 5.3523, the “Estimate (difference between means of log values)” value ([3]; 140 µM, experiment 2) was 5.6354 and the “Estimate (difference between means of log values)” value ([3]; 140 µM, experiment 3) was 5.8836. The “Calcium concentration inhibiting the antifungal activity” value ([3]; neutral pH, Figure S2) was 50 to 100 µM.
